Patent publication US20240158446A1, “CYCLIC COMPOUND HAVING SELECTIVE INHIBITORY ACTION ON KRAS OVER HRAS AND NRAS” (CHUGAI SEIYAKU KABUSHIKI KAISHA, priority 2021, published 2024)
Where two headings read alike, the source gives them in different places. Where a SMILES comes first, the peptide text is derived from it. Bridges are numbered along the chain shown (N, C = ends). [ ]: non-standard residue; d: D form. The star is where a group is joined. hPhe(3,5-F2-4-CF3) = N[C@@H](CCc1cc(F)c(C(F)(F)F)c(F)c1)C(=O)O; hPhe(3-Cl-4-CF3) = N[C@@H](CCc1ccc(C(F)(F)F)c(Cl)c1)C(=O)O; NPrPhe(4-CF3) = CCCN[C@@H](Cc1ccc(C(F)(F)F)cc1)C(=O)O; NMeGly(cPent) = CN[C@H](C(=O)O)C1CCCC1; Hyp = O=C(O)[C@@H]1C[C@@H](O)CN1; NMeD = CN[C@@H](CC(=O)O)C(=O)O; NMeL = CN[C@@H](CC(C)C)C(=O)O; αMeS = C[C@](N)(CO)C(=O)O; Morpholide = C1CN(*)CCO1; NMeA = CN[C@@H](C)C(=O)O; Piperidide = C1CCN(*)CC1; Ac5c = NC1(C(=O)O)CCCC1; Aze = O=C(O)[C@@H]1CCN1; Sar = CNCC(=O)O; Allyl = C=CC*

Tests used:
[1] = target: GDP-bound KRAS wild-type protein (Homo sapiens, UniProt P01116); assay: Binding to KRAS by surface plasmon resonance (SPR), Single Cycle Kinetics; conditions: GDP-bound KRAS wild-type protein, read-out: KRAS KD
GDP-bound KRAS wild-type protein, sequence (P01116 whole entry): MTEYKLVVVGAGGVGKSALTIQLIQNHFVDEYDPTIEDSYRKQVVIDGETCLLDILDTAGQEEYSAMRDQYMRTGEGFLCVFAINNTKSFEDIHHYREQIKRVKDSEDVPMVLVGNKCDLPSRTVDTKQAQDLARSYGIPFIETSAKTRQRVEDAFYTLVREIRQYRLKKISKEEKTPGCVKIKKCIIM

[2] = target: GDP-bound NRAS wild-type protein (Homo sapiens, UniProt P01111); assay: Binding to NRAS by surface plasmon resonance (SPR), Single Cycle Kinetics; conditions: for NRAS/KRAS (ratio of KD value with respect to GDP-bound NRAS wild-type protein to KD value with respect to KRAS): SPR KD ratio NRAS/KRAS, class symbols; for NRAS/KRAS (ratio of KD value for NRAS to KD value for KRAS) / NRAS/KRAS (ratio of KD value with respect to NRAS to KD value with respect to KRAS): GDP-bound NRAS wild-type protein vs GDP-bound KRAS wild-type protein
GDP-bound NRAS wild-type protein, sequence (P01111 whole entry): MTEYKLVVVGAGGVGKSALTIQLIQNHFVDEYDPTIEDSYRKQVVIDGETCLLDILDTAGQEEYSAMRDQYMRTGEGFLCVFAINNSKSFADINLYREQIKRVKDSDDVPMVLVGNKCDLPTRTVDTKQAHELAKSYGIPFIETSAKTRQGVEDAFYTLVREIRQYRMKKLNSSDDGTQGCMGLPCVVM

[3] = target: GDP-bound HRAS wild-type protein (Homo sapiens, UniProt P01112); assay: Binding to HRAS by surface plasmon resonance (SPR), Single Cycle Kinetics; conditions: for HRAS/KRAS (ratio of KD value with respect to GDP-bound HRAS wild-type protein to KD value with respect to KRAS): SPR KD ratio HRAS/KRAS, class symbols; for HRAS/KRAS (ratio of KD value for HRAS to KD value for KRAS) / HRAS/KRAS (ratio of KD value with respect to HRAS to KD value with respect to KRAS): GDP-bound HRAS wild-type protein vs GDP-bound KRAS wild-type protein
GDP-bound HRAS wild-type protein, sequence (P01112 whole entry): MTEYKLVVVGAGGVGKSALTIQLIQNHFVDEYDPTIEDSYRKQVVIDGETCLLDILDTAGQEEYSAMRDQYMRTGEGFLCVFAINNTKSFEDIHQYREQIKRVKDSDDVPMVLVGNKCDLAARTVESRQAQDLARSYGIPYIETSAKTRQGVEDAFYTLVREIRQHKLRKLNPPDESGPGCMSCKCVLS

[4] = SPR Single Cycle Kinetics, 1:1 binding model

| SMILES | Kd [1, 4] | Kd ([1]; SPR, Single Cycle Kinetics) | NRAS/KRAS (ratio of KD value for NRAS to KD value for KRAS) ([2]; SPR) | HRAS/KRAS (ratio of KD value for HRAS to KD value for KRAS) ([3]; SPR) | NRAS/KRAS (ratio of KD value with respect to NRAS to KD value with respect to KRAS) ([2]; SPR) | HRAS/KRAS (ratio of KD value with respect to HRAS to KD value with respect to KRAS) ([3]; SPR) | further results |
| --- | --- | --- | --- | --- | --- | --- | --- |
| CCC[C@H]1C(=O)N[C@@H]([C@@H](C)CC)C(=O)N(C2CC2)CC(=O)N(C)[C@H]2C/C=C\CCN(C2=O)[C@@H](Cc2ccc(C(F)(F)F)cc2)C(=O)N(C)CC(=O)N[C@@H](CCc2ccc(C(F)(F)F)c(OC)c2)C(=O)N2C[C@H](OCC)C[C@H]2C(=O)NC2(CC(C)(C)C2)C(=O)N(C)[C@@H](CC2CCC2)C(=O)N(C)[C@H](C(=O)N(C)C)CC(=O)N1C [PP2770] | 5 nM |  |  |  |  |  | NRAS/KRAS (ratio of KD value with respect to GDP-bound NRAS wild-type protein to KD value with respect to KRAS) [2]: A (a compound having 10 or more and less than 20 is denoted as A); HRAS/KRAS (ratio of KD value with respect to GDP-bound HRAS wild-type protein to KD value with respect to KRAS) [3]: A (a compound having 10 or more and less than 20 is denoted as A) |
| CCC[C@H]1C(=O)N[C@@H]([C@@H](C)CC)C(=O)N(C)CC(=O)N(C)[C@H]2C/C=C\CCN(C2=O)[C@@H](Cc2ccc(C)cc2)C(=O)N(C)CC(=O)N[C@@H](CCc2ccc(C(F)(F)F)c(Cl)c2)C(=O)N2C[C@H](OCC)C[C@H]2C(=O)NC2(CC(C)(C)C2)C(=O)N(C)[C@@H](CC(C)C)C(=O)N(C)[C@H](C(=O)N(C)C)CC(=O)N1C [PP2224] |  | 0.38 nM | A (a compound having 10 or more and less than 20 is denoted as A) | A (a compound having 10 or more and less than 20 is denoted as A) |  |  |  |
| CC[C@H](C)[C@@H]1NC(=O)[C@H](CC(C)C)N(C)C(=O)C[C@@H](C(=O)N2CCOCC2)N(C)C(=O)[C@H](C2CCCC2)N(C)C(=O)C(C)(C)NC(=O)[C@@H]2CCCN2C(=O)[C@H](CCc2cc(F)c(C(F)(F)F)c(F)c2)NC(=O)CN(C)C(=O)[C@H](Cc2ccc(C(F)(F)F)cc2)N2CCCC[C@@H](C2=O)N(C)C(=O)CN(C)C1=O [PP0565] | 0.16 nM |  |  |  | C (A compound having a KD ratio of 0.1 or more and less than 3 is denoted as C) | B (a compound having 3 or more and less than 10 is denoted as B) |  |
| CCCN1C(=O)CN(C)C(=O)CN(C)C(=O)[C@H]([C@@H](C)CC)NC(=O)[C@H](CC(C)C)N(C)C(=O)C[C@@H](C(=O)N2CCOCC2)N(C)C(=O)[C@H](C2CCCC2)N(C)C(=O)C2(CCCC2)NC(=O)[C@@H]2CCN2C(=O)[C@H](CCc2ccc(C(F)(F)F)c(Cl)c2)NC(=O)CN(C)C(=O)[C@@H]1Cc1ccc(C(F)(F)F)cc1 [PP0260] ([NMeL]I[Sar][Sar][NPrPhe(4-CF3)][Sar][hPhe(3-Cl-4-CF3)][Aze][Ac5c][NMeGly(cPent)][NMeD]-Morpholide; lactam N-11) | 0.39 nM |  | B (a compound having 3 or more and less than 10 is denoted as B) | C (A compound having a KD ratio of 0.1 or more and less than 3 is denoted as C) |  |  |  |
| CC[C@H](C)[C@@H]1NC(=O)[C@H](CC(C)C)N(C)C(=O)C[C@@H](C(=O)N2CCOCC2)N(C)C(=O)[C@H](C2CCCC2)N(C)C(=O)C2(CCCC2)NC(=O)[C@@H]2CCCN2C(=O)[C@H](CCc2cc(F)c(C(F)(F)F)c(F)c2)NC(=O)CN(C)C(=O)[C@H](Cc2ccc(C(F)(F)F)cc2)N2CCCCC[C@@H](C2=O)N(C)C(=O)CN(C)C1=O [PP0490] | 2.4 nM |  |  |  | B (a compound having 3 or more and less than 10 is denoted as B) | B (a compound having 3 or more and less than 10 is denoted as B) |  |
| CC[C@H](C)[C@@H]1NC(=O)[C@H](C)N(C)C(=O)C[C@@H](C(=O)N(C)C)N(C)C(=O)[C@H](C2CCCC2)N(C)C(=O)C2(CCC2)NC(=O)[C@@H]2CC(F)(F)CN2C(=O)[C@H](CCc2cc(F)c(C(F)(F)F)c(F)c2)NC(=O)CN(C)C(=O)[C@H](Cc2ccc(C(F)(F)F)cc2)N2CCCCC[C@@H](C2=O)N(C)C(=O)CN(C)C1=O [PP0473] | 0.56 nM |  |  |  | C (A compound having a KD ratio of 0.1 or more and less than 3 is denoted as C) | C (A compound having a KD ratio of 0.1 or more and less than 3 is denoted as C) |  |
| CCCN1C(=O)[C@@H]2CCN2C(=O)[C@H](C)N(C)C(=O)[C@H]([C@@H](C)CC)NC(=O)[C@H](CC(C)C)N(C)C(=O)C[C@@H](C(=O)N2CCCCC2)N(C)C(=O)[C@H](C2CCCC2)N(C)C(=O)C2(CCCC2)NC(=O)[C@@H]2CCCN2C(=O)[C@H](CCc2ccc(C(F)(F)F)c(Cl)c2)NC(=O)CN(C)C(=O)[C@@H]1Cc1ccc(C(F)(F)F)cc1 [PP0180] ([NMeL]I[NMeA][Aze][NPrPhe(4-CF3)][Sar][hPhe(3-Cl-4-CF3)]P[Ac5c][NMeGly(cPent)][NMeD]-Piperidide; lactam N-11) | 0.72 nM |  | C (A compound having a KD ratio of 0.1 or more and less than 3 is denoted as C) | C (A compound having a KD ratio of 0.1 or more and less than 3 is denoted as C) |  |  |  |
| CCC(CC)[C@H]1C(=O)N(C)[C@H](C(=O)N(C)C)CC(=O)N(C)[C@H]2CCC/C=C/c3ccc(cc3)C[C@@H](C(=O)N(C)CC(=O)N[C@@H](CCc3cc(F)c(C(F)(F)F)c(F)c3)C(=O)N3C[C@H](OC(C)C)C[C@H]3C(=O)NC3(CC(C)(C)C3)C(=O)N1C)N1CC/C=C\C[C@@H](C1=O)N(C)C(=O)CN(C)C(=O)[C@H]([C@@H](C)CC)NC2=O [PP2594] | 0.1 nM |  |  |  |  |  | NRAS/KRAS (ratio of KD value with respect to GDP-bound NRAS wild-type protein to KD value with respect to KRAS) [2]: A (a compound having 10 or more and less than 20 is denoted as A); HRAS/KRAS (ratio of KD value with respect to GDP-bound HRAS wild-type protein to KD value with respect to KRAS) [3]: A (a compound having 10 or more and less than 20 is denoted as A) |
| CCO[C@@H]1C[C@H]2C(=O)NC3(CC(C)(C)C3)C(=O)N(C)[C@@H](C3CCCC3)C(=O)N(C)[C@H](C(=O)N(C)CC)CC(=O)N(C)[C@H]3CCCC/C=C/c4ccc(cc4)C[C@@H](C(=O)N(C)CC(=O)N[C@@H](CCc4ccc(C(F)(F)F)c(OC)c4)C(=O)N2C1)N1CC/C=C\C[C@@H](C1=O)N(C)C(=O)CN(C)C(=O)[C@H]([C@@H](C)CC)NC3=O [PP1830, (1S,7S,11R,13S,19S,22S,26S,29S,35S,37Z,47E)-19-cyclopentyl-11-ethoxy-N-ethyl-7-[2-[3-methoxy-4-(trifluoromethyl)phenyl]ethyl]-N,3,3′,3′,18,21,25,31,34-nonamethyl-29-[(1S)-1-methylpropyl]-2,5,8,14,17,20,24,27,30,33,55-undecaoxo-spiro[3,6,9,15,18,21,25,28,31,34,41-undecazapentacyclo[24.15.11.2^43,46.1^35,41.0^9,13]pentapentaconta-37,43(54),44,46(53),47-pentaene-16,1′-cyclobutane]-22-carboxamide] |  | 0.054 nM |  |  |  |  | NRAS/KRAS (KD ratio) ([2]; ratio of KD for GDP-bound NRAS wild-type protein to KD for KRAS, SPR): A (a compound having 10 or more and less than 20 is denoted as A); HRAS/KRAS (KD ratio) ([3]; ratio of KD for GDP-bound HRAS wild-type protein to KD for KRAS, SPR): B (a compound having 3 or more and less than 10 is denoted as B) |
| CCO[C@@H]1C[C@H]2C(=O)NC3(CC(C)(C)C3)C(=O)N(C)[C@@H](C(CC)CC)C(=O)N(C)[C@H](C(=O)N(C)C)CC(=O)N(C)[C@@H](COC)C(=O)N[C@@H]([C@@H](C)CC)C(=O)N(C)CC(=O)N(C)[C@H]3C/C=C\CCN(C3=O)[C@@H](Cc3ccc(C(F)(F)F)cc3)C(=O)N(C)CC(=O)N[C@@H](CCc3cc(F)c(C(F)(F)F)c(F)c3)C(=O)N2C1 [PP2121] |  | 1.5 nM | AA (a compound having 20 or more is denoted as AA) | A (a compound having 10 or more and less than 20 is denoted as A) |  |  |  |
| C=CCOC[C@]1(C)NC(=O)[C@@H]2CCCN2C(=O)[C@H](CCc2cc(F)c(C(F)(F)F)c(F)c2)NC(=O)CN(C)C(=O)[C@H](Cc2ccc(C(F)(F)F)cc2)N(CCC)C(=O)[C@@H]2CCN2C(=O)CN(C)C(=O)[C@H]([C@@H](C)CC)NC(=O)[C@H](CC(C)C)N(C)C(=O)C[C@@H](C(=O)N2CCOCC2)N(C)C(=O)[C@H](C2CCCC2)N(C)C1=O [PP0799] ([NMeL]I[Sar][Aze][NPrPhe(4-CF3)][Sar][hPhe(3,5-F2-4-CF3)]P[αMeS](Allyl)[NMeGly(cPent)][NMeD]-Morpholide; lactam N-11) | 1.5 nM |  |  |  | C (A compound having a KD ratio of 0.1 or more and less than 3 is denoted as C) | B (a compound having 3 or more and less than 10 is denoted as B) |  |
| CCCN1C(=O)[C@@H]2CCN2C(=O)CN(C)C(=O)[C@H]([C@@H](C)CC)NC(=O)[C@H](CC(C)C)N(C)C(=O)C[C@@H](C(=O)N(C)C)N(C)C(=O)[C@H](C2CCCC2)N(C)C(=O)C2(CCCC2)NC(=O)[C@@H]2C[C@@H](OCC)CN2C(=O)[C@H](CCc2ccc(C(F)(F)F)c(Cl)c2)NC(=O)CN(C)C(=O)[C@@H]1Cc1ccc(C(F)(F)F)cc1 [PP0444] ([NMeL]I[Sar][Aze][NPrPhe(4-CF3)][Sar][hPhe(3-Cl-4-CF3)][Hyp](Et)[Ac5c][NMeGly(cPent)][NMeD]-NMe2; lactam N-11) | 0.031 nM |  |  |  | C (A compound having a KD ratio of 0.1 or more and less than 3 is denoted as C) | C (A compound having a KD ratio of 0.1 or more and less than 3 is denoted as C) |  |
| CCO[C@@H]1C[C@H]2C(=O)NC3(CC(F)(F)C3)C(=O)N(C)[C@@H](C3CCCC3)C(=O)N(C)[C@H](C(=O)N3CCOCC3)CC(=O)N(C)[C@@H](COC)C(=O)N[C@@H]([C@@H](C)CC)C(=O)N(C)CC(=O)N(C)[C@H]3CCCCCN(C3=O)[C@@H](Cc3ccc(C(F)(F)F)cc3)C(=O)N(C)CC(=O)N[C@@H](CCc3cc(F)c(C(F)(F)F)c(F)c3)C(=O)N2C1 [PP0843] |  | 0.52 nM | B (a compound having 3 or more and less than 10 is denoted as B) | B (a compound having 3 or more and less than 10 is denoted as B) |  |  |  |
